# Read-outs that look alike come from different tables or passages of the source. *1 amine or outer side, *2 acyl side, *3 side chain or, on linkers, in order; H or OH if unused. Where a SMILES comes first, the peptide text is derived from it. Side-chain parts run from the residue outwards. [ ]: non-standard residue; d: D form. The star is where a group is joined. αMePhe(2-F) = C[C@](N)(Cc1ccccc1F)C(=O)O; γGlu = O=C(O)[C@H](CCC(=O)[*:2])N[*:1]; C14 diacid = O=C(O)CCCCCCCCCCCCC(=O)*; αMeY = C[C@](N)(Cc1ccc(O)cc1)C(=O)O; αMeL = CC(C)C[C@](C)(N)C(=O)O; Orn = NCCC[C@H](N)C(=O)O; AEEA = NCCOCCOCC(=O)O; Aib = CC(C)(N)C(=O)O
# Legend:
# Format in all cases: cell-based
# hGIPR = biological target: T1, hGIPR (Homo sapiens, UniProt P48546); assay: Functional cAMP formation (HTRF) in HEK-293 clonal cells expressing hGIPR, 0.1% bovine casein, without or with 1.0% human serum albumin; details: for EC50: geometric mean
# T1 construct: expressed in transfected cells
# T1 sequence (P48546 22-466): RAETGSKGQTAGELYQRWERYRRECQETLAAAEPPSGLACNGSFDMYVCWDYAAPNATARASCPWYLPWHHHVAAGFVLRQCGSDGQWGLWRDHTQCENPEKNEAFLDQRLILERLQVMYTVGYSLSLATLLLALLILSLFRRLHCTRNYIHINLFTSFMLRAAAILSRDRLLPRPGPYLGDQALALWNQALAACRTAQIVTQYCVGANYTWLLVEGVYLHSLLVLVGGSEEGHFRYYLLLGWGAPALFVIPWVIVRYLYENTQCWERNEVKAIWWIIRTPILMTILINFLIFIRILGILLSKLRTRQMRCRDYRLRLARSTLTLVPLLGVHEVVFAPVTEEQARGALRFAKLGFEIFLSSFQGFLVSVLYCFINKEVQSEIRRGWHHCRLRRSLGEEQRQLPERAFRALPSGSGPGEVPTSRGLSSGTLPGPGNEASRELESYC
# Summary of the method: (§1)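 Cells were stimulated with peptide for 30 min at 37° C, then intracellular cAMP was measured by competitive HTRF (665/620 nm ratio) and converted to nM using a cAMP standard curve. Relative EC50 and Emax came from four-parameter logistic fits of percent maximal response against peptide concentration.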
# hGCGR = biological target: T2, hGCGR (Homo sapiens, UniProt P47871); assay: Functional cAMP formation (HTRF) in HEK-293 clonal cells expressing hGCGR, 0.1% bovine casein, without or with 1.0% human serum albumin
# T2 construct: expressed in transfected cells
# T2 sequence (P47871 26-477): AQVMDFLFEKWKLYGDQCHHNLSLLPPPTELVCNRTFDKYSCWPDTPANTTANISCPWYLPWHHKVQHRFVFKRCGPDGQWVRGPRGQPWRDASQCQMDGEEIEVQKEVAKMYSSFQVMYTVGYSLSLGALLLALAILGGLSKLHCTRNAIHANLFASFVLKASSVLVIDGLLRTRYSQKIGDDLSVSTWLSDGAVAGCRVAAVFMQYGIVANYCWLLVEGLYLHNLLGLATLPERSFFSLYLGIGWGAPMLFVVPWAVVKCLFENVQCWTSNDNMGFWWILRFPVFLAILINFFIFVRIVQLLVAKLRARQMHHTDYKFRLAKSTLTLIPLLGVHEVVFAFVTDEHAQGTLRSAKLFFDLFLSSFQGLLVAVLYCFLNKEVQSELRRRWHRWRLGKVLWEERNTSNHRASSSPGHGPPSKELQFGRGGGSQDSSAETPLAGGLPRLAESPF
# Summary of the method: as §1
# hGLP-1R = hGLP-1R (Homo sapiens, UniProt P43220); assay: Functional cAMP formation (HTRF) in HEK-293 clonal cells expressing hGLP-1R, 0.1% bovine casein, without or with 1.0% human serum albumin; set-up: expressed in transfected cells
# hGLP-1R, sequence (P43220 24-463): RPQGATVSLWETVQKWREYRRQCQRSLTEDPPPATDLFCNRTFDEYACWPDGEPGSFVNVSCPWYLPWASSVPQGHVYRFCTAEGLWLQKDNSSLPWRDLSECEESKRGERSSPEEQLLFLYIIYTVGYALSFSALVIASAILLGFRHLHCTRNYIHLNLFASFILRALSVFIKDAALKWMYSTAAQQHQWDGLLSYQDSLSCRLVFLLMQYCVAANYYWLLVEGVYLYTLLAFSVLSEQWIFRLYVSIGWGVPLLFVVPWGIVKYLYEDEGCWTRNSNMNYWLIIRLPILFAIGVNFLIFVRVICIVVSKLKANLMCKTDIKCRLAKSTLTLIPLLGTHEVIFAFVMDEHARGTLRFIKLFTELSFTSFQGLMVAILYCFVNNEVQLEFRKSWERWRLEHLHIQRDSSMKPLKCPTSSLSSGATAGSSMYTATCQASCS
# Summary of the method: as §1
# [1] = HEK293, percent of maximal response to GIP(1-42)NH2, 37° C., 0.1% bovine casein, arithmetic mean, read-out: hGIPR Emax, % ± SEM
# [2] = cAMP, incubated at 37° C., 0.1% bovine casein (no human serum albumin), geometric mean, read-out: hGCGR EC50, nM (SEM, n)
# [3] = HEK293, percent of maximal response to GLP-1(7-36)NH2, 37° C., 0.1% bovine casein, arithmetic mean, read-out: hGLP-1R Emax, % ± SEM
# [4] = cAMP, incubated at 37° C., 0.1% bovine casein (no human serum albumin), geometric mean, read-out: hGLP-1R EC50, nM (SEM, n)
smiles,measurement,setting,value
CC[C@H](C)[C@H](NC(=O)[C@H](CC(C)C)NC(=O)[C@](C)(Cc1ccc(O)cc1)NC(=O)[C@H](CCCCNC(=O)COCCOCCNC(=O)COCCOCCNC(=O)CC[C@H](NC(=O)CCCCCCCCCCCCC(=O)O)C(=O)O)NC(=O)[C@@H](NC(=O)[C@H](Cc1ccccc1)NC(=O)[C@H](CCC(=O)O)NC(=O)C(C)(C)NC(=O)[C@H](CCC(N)=O)NC(=O)[C@H](C)NC(=O)[C@H](CCCCNC(=O)COCCOCCNC(=O)COCCOCCNC(=O)CC[C@H](NC(=O)CCCCCCCCCCCCC(=O)O)C(=O)O)NC(=O)[C@H](CCCN)NC(=O)[C@H](CC(=O)O)NC(=O)[C@H](CC(C)C)NC(=O)[C@](C)(CC(C)C)NC(=O)[C@@H](NC(=O)[C@](C)(CO)NC(=O)[C@H](Cc1ccncc1)NC(=O)[C@H](CC(=O)O)NC(=O)[C@H](CO)NC(=O)[C@@H](NC(=O)[C@](C)(Cc1ccccc1F)NC(=O)[C@@H](NC(=O)CNC(=O)[C@H](CCC(=O)O)NC(=O)C(C)(C)NC(=O)[C@@H](N)Cc1ccc(O)cc1)[C@@H](C)O)[C@@H](C)O)[C@@H](C)CC)[C@@H](C)CC)C(=O)N[C@@H](CCC(=O)O)C(=O)NCC(=O)NCC(=O)N1CCC[C@H]1C(=O)N[C@@H](CO)C(=O)N[C@@H](CO)C(=O)NCC(=O)N[C@@H](C)C(=O)N1CCC[C@H]1C(=O)N1CCC[C@H]1C(=O)N1CCC[C@H]1C(=O)N[C@@H](CO)C(N)=O [Example 214],Emax,"hGIPR; HEK293, read-out: hGIPR Emax, % ± SEM, 0.1% bovine casein and 1.0% human serum albumin, 37° C., percent of maximal response to GIP(1-42)NH2",80.4%
same,EC50,"hGIPR; hGIPR EC50, nM (SEM, n), 0.1% bovine casein and 1.0% human serum albumin, 37° C.",2.03 nM
same,EC50,"hGIPR; hGIPR EC50, nM (SEM, n), cAMP, incubated at 37° C., 0.1% bovine casein (no human serum albumin)",0.0351 nM
same,EC50,"hGCGR; hGCGR EC50, nM (SEM, n), 0.1% bovine casein and 1.0% human serum albumin, 37° C., geometric mean",> 9950 nM
same,EC50,"hGCGR; hGCGR EC50, nM (SEM, n), cAMP, incubated at 37° C., 0.1% bovine casein (no human serum albumin), geometric mean",> 9950 nM
same,Emax,"hGLP-1R; HEK293, read-out: hGLP-1R Emax, % ± SEM, percent of maximal response to GLP-1(7-36)NH2, 37° C., 0.1% bovine casein, arithmetic mean",93.2%
same,EC50,"hGLP-1R; hGLP-1R EC50, nM (SEM, n), 0.1% bovine casein and 1.0% human serum albumin, 37° C., geometric mean",17.9 nM
CC[C@H](C)[C@H](NC(=O)[C@H](CC(C)C)NC(=O)[C@](C)(Cc1ccc(O)cc1)NC(=O)[C@@H](CCC(=O)O)NC(=O)[C@@H](NC(=O)[C@H](Cc1ccccc1)NC(=O)[C@H](CCC(=O)O)NC(=O)C(C)(C)NC(=O)[C@H](CCC(N)=O)NC(=O)[C@H](C)NC(=O)[C@H](CCCCNC(=O)COCCOCCNC(=O)COCCOCCNC(=O)CC[C@H](NC(=O)CCCCCCCCCCCCC(=O)O)C(=O)O)NC(=O)[C@H](CCCN)NC(=O)[C@H](CC(=O)O)NC(=O)[C@H](CC(C)C)NC(=O)[C@](C)(CC(C)C)NC(=O)[C@@H](NC(=O)[C@H](CO)NC(=O)[C@@H](NC(=O)[C@H](CC(=O)O)NC(=O)[C@H](CO)NC(=O)[C@@H](NC(=O)[C@](C)(Cc1ccccc1F)NC(=O)[C@@H](NC(=O)CNC(=O)[C@H](CCC(=O)O)NC(=O)C(C)(C)NC(=O)[C@@H](N)Cc1ccc(O)cc1)[C@@H](C)O)[C@@H](C)O)C(C)C)[C@@H](C)CC)[C@@H](C)CC)C(=O)N[C@@H](CCC(=O)O)C(=O)NCC(=O)NCC(=O)N[C@@H](CCCCNC(=O)COCCOCCNC(=O)COCCOCCNC(=O)CC[C@H](NC(=O)CCCCCCCCCCCCC(=O)O)C(=O)O)C(=O)N[C@@H](CO)C(=O)N[C@@H](CO)C(=O)NCC(=O)N[C@@H](C)C(=O)N1CCC[C@H]1C(=O)N1CCC[C@H]1C(=O)N1CCC[C@H]1C(=O)N[C@@H](CO)C(N)=O [Example 90] (H-Y[Aib]EGT[αMePhe(2-F)]TSDVSI[αMeL]LD[Orn]K([AEEA-AEEA-γGlu-C14 diacid])AQ[Aib]EFI[dE][αMeY]LIEGGK([AEEA-AEEA-γGlu-C14 diacid])SSGAPPPS-NH2),Emax,hGIPR; [1],93 ± 3.31%
same,EC50,"hGCGR; 0.1% bovine casein and 1.0% human serum albumin, 37° C., geometric mean, read-out: hGCGR EC50, nM (SEM, n)",> 9950 nM
same,EC50,hGCGR; [2],> 9950 nM
same,EC50,"hGLP-1R; 0.1% bovine casein and 1.0% human serum albumin, 37° C., geometric mean, read-out: hGLP-1R EC50, nM (SEM, n)",23.4 nM
same,Emax,"hGLP-1R; HEK293, 0.1% bovine casein and 1.0% human serum albumin, 37° C., percent of maximal response to GLP-1(7-36)NH2, read-out: hGLP-1R Emax, % ± SEM",96.6%
same,Emax,hGLP-1R; [3],96.2 ± 1.5%
same,EC50,hGLP-1R; [4],0.221 nM
CC[C@H](C)[C@H](NC(=O)[C@H](CC(C)C)NC(=O)[C@](C)(Cc1ccc(O)cc1)NC(=O)[C@@H](CCC(=O)O)NC(=O)[C@@H](NC(=O)[C@H](Cc1ccccc1)NC(=O)[C@H](CCC(=O)O)NC(=O)C(C)(C)NC(=O)[C@H](CCC(N)=O)NC(=O)[C@H](C)NC(=O)[C@H](CCCCNC(=O)COCCOCCNC(=O)COCCOCCNC(=O)CC[C@H](NC(=O)CCCCCCCCCCCCC(=O)O)C(=O)O)NC(=O)[C@H](CCCN)NC(=O)[C@H](CC(=O)O)NC(=O)[C@H](CC(C)C)NC(=O)[C@](C)(CC(C)C)NC(=O)[C@@H](NC(=O)[C@H](CO)NC(=O)[C@H](Cc1cccs1)NC(=O)[C@H](CC(=O)O)NC(=O)[C@H](CO)NC(=O)[C@@H](NC(=O)[C@](C)(Cc1ccccc1F)NC(=O)[C@@H](NC(=O)CNC(=O)[C@H](CCC(=O)O)NC(=O)C(C)(C)NC(=O)[C@@H](N)Cc1ccc(O)cc1)[C@@H](C)O)[C@@H](C)O)[C@@H](C)CC)[C@@H](C)CC)C(=O)N[C@@H](CCC(=O)O)C(=O)NCC(=O)NCC(=O)N[C@@H](CCCCNC(=O)COCCOCCNC(=O)COCCOCCNC(=O)CC[C@H](NC(=O)CCCCCCCCCCCCC(=O)O)C(=O)O)C(=O)N[C@@H](CO)C(=O)N[C@@H](CO)C(=O)NCC(=O)N[C@@H](C)C(=O)N1CCC[C@H]1C(=O)N1CCC[C@H]1C(=O)N1CCC[C@H]1C(=O)N[C@@H](CO)C(N)=O [Example 145],Emax,hGIPR; [1],74.8%
same,EC50,"hGIPR; cAMP, incubated at 37° C., 0.1% bovine casein (no human serum albumin), read-out: hGIPR EC50, nM (SEM, n)",0.0286 nM
same,EC50,hGCGR; [2],> 9950 nM
same,Emax,hGLP-1R; [3],95.1%
same,EC50,hGLP-1R; [4],0.555 nM
CC[C@H](C)[C@H](NC(=O)[C@H](CC(C)C)NC(=O)[C@](C)(Cc1ccc(O)cc1)NC(=O)[C@@H](CCC(=O)O)NC(=O)[C@@H](NC(=O)[C@H](Cc1ccccc1)NC(=O)[C@H](CCCCNC(=O)COCCOCCNC(=O)COCCOCCNC(=O)CCCCCCCCCOc1ccc(C(=O)O)cc1)NC(=O)C(C)(C)NC(=O)[C@H](CCC(N)=O)NC(=O)[C@H](C)NC(=O)[C@H](CCCCNC(=O)COCCOCCNC(=O)COCCOCCNC(=O)CCCCCCCCCOc1ccc(C(=O)O)cc1)NC(=O)[C@H](CCCN)NC(=O)[C@H](CC(=O)O)NC(=O)[C@H](CC(C)C)NC(=O)[C@](C)(CC(C)C)NC(=O)[C@@H](NC(=O)C(C)(C)NC(=O)[C@H](Cc1ccc(O)cc1)NC(=O)[C@H](CC(=O)O)NC(=O)[C@H](CO)NC(=O)[C@@H](NC(=O)[C@](C)(Cc1ccccc1F)NC(=O)[C@@H](NC(=O)CNC(=O)[C@H](CCC(=O)O)NC(=O)C(C)(C)NC(=O)[C@@H](N)Cc1ccc(O)cc1)[C@@H](C)O)[C@@H](C)O)[C@@H](C)CC)[C@@H](C)CC)C(=O)N[C@@H](CCC(=O)O)C(=O)NCC(=O)NCC(=O)N1CCC[C@H]1C(=O)N[C@@H](CO)C(=O)N[C@@H](CO)C(=O)NCC(=O)N[C@@H](C)C(=O)N1CCC[C@H]1C(=O)N1CCC[C@H]1C(=O)N1CCC[C@H]1C(=O)N[C@@H](CO)C(N)=O [Example 393],Emax,"hGIPR; HEK293, read-out: hGIPR Emax, % ± SEM, cAMP, 37° C., 0.1% bovine casein and 1.0% human serum albumin, percent of maximal response to GIP(1-42)NH2",66.7%
same,Emax,"hGIPR; HEK293, read-out: hGIPR Emax, % ± SEM, cAMP, 37° C., 0.1% bovine casein, percent of maximal response to GIP(1-42)NH2, arithmetic mean",94.3%
same,EC50,"hGIPR; hGIPR EC50, nM (SEM, n), cAMP, 37° C., 0.1% bovine casein (no human serum albumin)",0.0115 nM
same,EC50,"hGCGR; hGCGR EC50, nM (SEM, n), cAMP, 37° C., 0.1% bovine casein (no human serum albumin), geometric mean",> 9950 nM
same,EC50,"hGCGR; hGCGR EC50, nM (SEM, n), cAMP, 37° C., 0.1% bovine casein and 1.0% human serum albumin, geometric mean (SEM, n)",> 9950 nM
same,Emax,"hGLP-1R; HEK293, read-out: hGLP-1R Emax, % ± SEM, cAMP, 37° C., 0.1% bovine casein, percent of maximal response to GLP-1(7-36)NH2, arithmetic mean",96.8%
same,EC50,"hGLP-1R; hGLP-1R EC50, nM (SEM, n), cAMP, 37° C., 0.1% bovine casein (no human serum albumin), geometric mean",0.372 nM
same,EC50,"hGLP-1R; hGLP-1R EC50, nM (SEM, n), cAMP, 37° C., 0.1% bovine casein and 1.0% human serum albumin, geometric mean (SEM, n)",9.18 nM

# Source: patent US20230265151A1, “GIP/GLP1 CO-AGONIST COMPOUNDS” (priority 2020, published 2023)
